In article PMC5933782, “Molecular structures of cdc2-like kinases in complex with a new inhibitor chemotype” (PLoS ONE, 2018):

Columns and labels:
[1] = target: CDK1/cyclin B; experiment: radiometric protein kinase assay; assay type: biochemical, starfish; settings: 15 μmol/L ATP
[2] = system: A498; experiment: NCI cancer cell line screening; assay type: cell-based; settings: Homo sapiens; A498, Renal Cancer
Protocol: (§1) Being the most promising compound in terms of CLK1 inhibitory potency and selectivity, KuWal151 (8c) was tested in the National Cancer Institute cancer cell line screening on 57 tumor cell lines of different tissue origin [45]. With only a few exceptions, KuWal151 inhibited the growth of most cell lines in submicromolar concentrations. In Table 2 the cancer cell line inhibition data is listed with the expression rates of SPF45 and CLK1 as indicated in the Expression Atlas database (https://www.ebi.ac.uk/gxa/home). Apparently the cell lines with high levels of CLK1 encoding RNA are inhibited over average. […] However, the available data are not sufficient to construe a clear relationship between the expression levels of the putative target CLK1 and sensitivity of the cell lines against 8c. The same holds true for SPF45, an important substrate of CLK1 involved in splicing which is found to be overexpressed in many cancer cell lines. […] The lack of a straight relationship between CLK1 and/or SPF45 expression levels on the one hand and sensitivity against the CLK1 inhibitor 8c on the other hand may have various reasons, e.g. different uptake rates of the inhibitor by the cells or alternative intracellular targets. For verification of the results from the NCI screening, which is based on the in situ fixation of cells followed by staining with the protein-binding dye sulforhodamin B [47, 48], 8c was also tested on two cell lines of the NCI panel (HT-29 and MDA-MB-231) in a crystal violet assay.

[3] = system: A549/ATCC; experiment: NCI cancer cell line screening; assay type: cell-based; settings: Homo sapiens, Non-Small Cell Lung Cancer
Protocol: as §1

[4] = system: BT-549; experiment: NCI cancer cell line screening; assay type: cell-based; settings: Homo sapiens; BT-549, Breast Cancer
Protocol: as §1

[5] = system: COLO 205; experiment: NCI cancer cell line screening; assay type: cell-based; settings: Homo sapiens; COLO 205, Colon Cancer
Protocol: as §1

[6] = system: DU-145; experiment: NCI cancer cell line screening; assay type: cell-based; settings: Homo sapiens; DU-145, Prostate Cancer
Protocol: as §1

[7] = system: EKVX; experiment: NCI cancer cell line screening; assay type: cell-based; settings: Homo sapiens, Non-Small Cell Lung Cancer
Protocol: as §1

[8] = system: HCC-2998; experiment: NCI cancer cell line screening; assay type: cell-based; settings: Homo sapiens; HCC-2998, Colon Cancer
Protocol: as §1

[9] = system: HCT-116; experiment: NCI cancer cell line screening; assay type: cell-based; settings: Homo sapiens; HCT-116, Colon Cancer
Protocol: as §1

[10] = system: HS 578T; experiment: NCI cancer cell line screening; assay type: cell-based; settings: Homo sapiens, Breast Cancer
Protocol: as §1

[11] = system: HT29; experiment: NCI cancer cell line screening; assay type: cell-based; settings: Homo sapiens, HT-29; HT29, Colon Cancer
Protocol: as §1

[12] = system: IGROV1; experiment: NCI cancer cell line screening; assay type: cell-based; settings: Homo sapiens, IGROV-1; IGROV1, Ovarian Cancer
Protocol: as §1

[13] = system: K-562; experiment: NCI cancer cell line screening; assay type: cell-based; settings: Homo sapiens, K562; K-562, Leukemia
Protocol: as §1

[14] = system: LOX IMVI; experiment: NCI cancer cell line screening; assay type: cell-based; settings: Homo sapiens, Melanoma
Protocol: as §1

[15] = system: MDA-MB-435; experiment: NCI cancer cell line screening; assay type: cell-based; settings: Homo sapiens
Protocol: as §1

[16] = system: MOLT-4; experiment: NCI cancer cell line screening; assay type: cell-based; settings: Homo sapiens; MOLT-4, Leukemia
Protocol: as §1

[17] = system: NCI-H460; experiment: NCI cancer cell line screening; assay type: cell-based; settings: Homo sapiens; NCI-H460, Non-Small Cell Lung Cancer
Protocol: as §1

[18] = system: OVCAR-3; experiment: NCI cancer cell line screening; assay type: cell-based; settings: Homo sapiens; OVCAR-3, Ovarian Cancer
Protocol: as §1

[19] = system: OVCAR-4; experiment: NCI cancer cell line screening; assay type: cell-based; settings: Homo sapiens; OVCAR-4, Ovarian Cancer
Protocol: as §1

[20] = system: OVCAR-5; experiment: NCI cancer cell line screening; assay type: cell-based; settings: Homo sapiens; OVCAR-5, Ovarian Cancer
Protocol: as §1

[21] = system: OVCAR-8; experiment: NCI cancer cell line screening; assay type: cell-based; settings: Homo sapiens; OVCAR-8, Ovarian Cancer
Protocol: as §1

[22] = system: RPMI-8226; experiment: NCI cancer cell line screening; assay type: cell-based; settings: Homo sapiens; RPMI-8226, Leukemia
Protocol: as §1

[23] = system: RXF 393; experiment: NCI cancer cell line screening; assay type: cell-based; settings: Homo sapiens; RXF 393, Renal Cancer
Protocol: as §1

[24] = system: SF-539; experiment: NCI cancer cell line screening; assay type: cell-based; settings: Homo sapiens; SF-539, CNS Cancer
Protocol: as §1

[25] = system: SK-MEL-28; experiment: NCI cancer cell line screening; assay type: cell-based; settings: Homo sapiens; SK-MEL-28, Melanoma
Protocol: as §1

[26] = system: SK-MEL-2; experiment: NCI cancer cell line screening; assay type: cell-based; settings: Homo sapiens; SK-MEL-2, Melanoma
Protocol: as §1

[27] = system: SK-MEL-5; experiment: NCI cancer cell line screening; assay type: cell-based; settings: Homo sapiens; SK-MEL-5, Melanoma
Protocol: as §1

[28] = system: SN12C; experiment: NCI cancer cell line screening; assay type: cell-based; settings: Homo sapiens, Renal Cancer
Protocol: as §1

[29] = system: SNB-19; experiment: NCI cancer cell line screening; assay type: cell-based; settings: Homo sapiens; SNB-19, CNS Cancer
Protocol: as §1

[30] = system: SR; experiment: NCI cancer cell line screening; assay type: cell-based; settings: Homo sapiens, Leukemia
Protocol: as §1

[31] = system: SW-620; experiment: NCI cancer cell line screening; assay type: cell-based; settings: Homo sapiens; SW-620, Colon Cancer
Protocol: as §1

[32] = system: TK-10; experiment: NCI cancer cell line screening; assay type: cell-based; settings: Homo sapiens; TK-10, Renal Cancer
Protocol: as §1

[33] = system: U251; experiment: NCI cancer cell line screening; assay type: cell-based; settings: Homo sapiens, U-251; U251, CNS Cancer
Protocol: as §1

[34] = system: UACC-62; experiment: NCI cancer cell line screening; assay type: cell-based; settings: Homo sapiens; UACC-62, Melanoma
Protocol: as §1

[35] = system: UACC-257; experiment: NCI cancer cell line screening; assay type: cell-based, human
Protocol: as §1, with “For verification of the results from the NCI screening, which is based on the in situ fixation of cells followed by staining with the protein-binding dye sulforhodamin B [47, 48], 8c was also tested on two cell lines of the NCI panel (HT-29 and MDA-MB-231) in a crystal violet assay.” left out

[36] = target: CLK4 (Mus musculus, UniProt O35493); experiment: radiometric protein kinase assay
Chain of CLK4 (O35493 whole entry): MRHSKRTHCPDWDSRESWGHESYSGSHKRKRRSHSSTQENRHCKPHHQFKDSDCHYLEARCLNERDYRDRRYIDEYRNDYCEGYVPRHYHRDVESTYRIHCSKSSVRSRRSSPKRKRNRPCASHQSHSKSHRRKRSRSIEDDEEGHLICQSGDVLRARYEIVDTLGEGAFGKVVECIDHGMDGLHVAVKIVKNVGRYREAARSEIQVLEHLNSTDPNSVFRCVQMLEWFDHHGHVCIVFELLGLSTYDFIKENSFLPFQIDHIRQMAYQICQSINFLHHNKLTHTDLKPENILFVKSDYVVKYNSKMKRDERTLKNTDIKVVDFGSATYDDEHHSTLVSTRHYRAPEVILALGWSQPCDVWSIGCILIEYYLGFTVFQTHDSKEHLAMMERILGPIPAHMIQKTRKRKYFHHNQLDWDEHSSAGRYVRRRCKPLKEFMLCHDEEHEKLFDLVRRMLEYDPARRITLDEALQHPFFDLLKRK

O=C1NCc2ccc3c(-c4cccc(Cl)c4)c[nH]c3c21 [8c, 3-(3-Chlorophenyl)-6,7-dihydropyrrolo[3,4-g]indol-8(1H)-one]
IC50 [1]: > 10000 nM | GI50 [2]: 166 nM | GI50 [3]: 389 nM | GI50 [4]: 204 nM | GI50 [5]: 209 nM | GI50 [6]: 316 nM | GI50 [7]: 355 nM | GI50 [8]: 912 nM | GI50 [9]: 191 nM | GI50 [10]: 204 nM | GI50 [11]: 174 nM | GI50 [12]: 427 nM | GI50 [13]: 162 nM | GI50 [14]: 245 nM | GI50 ([15]; MDA-MB-435, MDA-MB-435, Melanoma): 72.4 nM | GI50 ([15]; MDA-MB-435, MDA-MB-435, as quoted in text): 72 nM | GI50 [16]: 257 nM | GI50 [17]: 209 nM | GI50 [18]: 191 nM | GI50 [19]: 912 nM | GI50 [20]: 1250 nM | GI50 [21]: 724 nM | GI50 [22]: 288 nM | GI50 [23]: 457 nM | GI50 [24]: 166 nM | GI50 [25]: 692 nM | GI50 [26]: 316 nM | GI50 [27]: 407 nM | GI50 [28]: 331 nM | GI50 [29]: 389 nM | GI50 [30]: 151 nM | GI50 [31]: 209 nM | GI50 [32]: 10200 nM | GI50 [33]: 263 nM | GI50 [34]: 275 nM | GI50 ([35]; Homo sapiens, UACC-257, UACC-257, Melanoma): > 50000 nM | GI50 ([35]; UACC-257, Melanoma): > 50100 nM | IC50 [36]: 28 nM
